Source: paper PMC8070829, “Discovery of New Coumarin-Based Lead with Potential Anticancer, CDK4 Inhibition and Selective Radiotheranostic Effect: Synthesis, 2D & 3D QSAR, Molecular Dynamics, In Vitro Cytotoxicity, Radioiodination, and Biodistribution Studies” (Molecules, 2021)
Like-named read-outs stand apart in the source and are kept apart here.

What was measured:
[1] = biological target: T1, CDK4 enzyme (Homo sapiens, UniProt P11802); assay: CDK4 enzyme inhibition assay; assay type: biochemical
T1 construct: purchased Reaction Biology Corp. (Kinase HotSpot service)
T1 sequence (P11802 whole entry): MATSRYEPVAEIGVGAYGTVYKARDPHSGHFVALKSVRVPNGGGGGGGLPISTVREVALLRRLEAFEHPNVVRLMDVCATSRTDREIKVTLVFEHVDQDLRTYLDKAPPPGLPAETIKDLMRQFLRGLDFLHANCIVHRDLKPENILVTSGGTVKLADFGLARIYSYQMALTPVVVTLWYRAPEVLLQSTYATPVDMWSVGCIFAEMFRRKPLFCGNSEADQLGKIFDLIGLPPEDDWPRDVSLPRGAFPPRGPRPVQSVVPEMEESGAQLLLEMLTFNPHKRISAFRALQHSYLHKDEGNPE
T1 sequence (P24385 whole entry partner): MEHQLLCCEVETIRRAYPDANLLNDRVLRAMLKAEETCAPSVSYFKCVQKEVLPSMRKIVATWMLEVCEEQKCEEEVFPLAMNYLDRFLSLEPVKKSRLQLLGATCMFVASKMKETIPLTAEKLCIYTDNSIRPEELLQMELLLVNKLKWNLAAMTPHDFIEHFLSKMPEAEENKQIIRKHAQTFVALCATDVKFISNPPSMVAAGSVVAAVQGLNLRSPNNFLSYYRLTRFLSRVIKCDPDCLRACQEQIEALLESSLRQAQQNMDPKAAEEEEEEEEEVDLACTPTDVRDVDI
Description: Reaction Biology Corp. Kinase HotSpotSM service (http://www.reactionbiology.com, accessed on 1 April 2019) was used for screening of tested compounds. CDK4 Kinase inhibitory activities were assessed by the HotSpot assay platform, which contained specific kinase/substrate pairs along with required cofactors. Base reaction buffer: 20 mM Hepes (pH 7.5), 10 mM MgCl2, 1 mM EGTA, 0.02% Brij35, 0.02 mg/mL BSA, 0.1 mM Na3VO4, 2 mM DTT, 1% DMSO. Testing compounds were dissolved in 100% DMSO to specific concentration. The serial dilution was conducted in DMSO. The reaction mixture containing the examined compound and 33P-ATP was incubated at room temperature for 2 h and radioactivity was detected by the filter-binding method. Kinase activity data were expressed as the percent remaining kinase activity in test samples compared to vehicle (dimethyl sulfoxide) reactions.
For CDK4 enzyme inhibition, CDK4 ELISA kit, Cloud-Clone Corp, US was used. This kit is used for the in vitro quantitative measurement of CDK4 concentrations in tissue homogenates, cell lysates and other biological fluids with high sensitivity and specificity. The cancer cells were treated with different amounts of each compound according to the aforementioned protocol. In addition, the cells were lysed and then treated as instructed by the manufacturer’s protocol. The absorbance of each well was detected at 450 nm using an ELISA plate reader. The results are reported as half maximal inhibitory concentration (IC50).

[2] = system: CHO-K1 cells; assay: In vitro cytotoxicity, CHO-K1; assay type: cell-based, hamster; conditions: CHO-K1 ovarian cell line
Text: (§1) Mammalian cell lines: MCF-7 cells (human breast cancer) cell line, A-549 (human Lung Carcinoma) and CHO-K1 cells (hamster ovary cancer) cell line were obtained from the American Type Culture Collection (ATCC, Rockville, MD). Fetal bovine serum, RPMI-1640, HEPES buffer solution, L-glutamine, gentamycin and 0.25% Trypsin-EDTA were purchased from Lonza (Belgium). All reagents and chemicals were of pharmaceutical pure grade. Non-carrier added Na^131I solution (pH = 7) was purchased from the Research and Production Facility, The Egyptian Atomic Energy Authority. Chemicals were purchased from Sigma Aldrich and Lonza. Monitoring of chemical reactions was done by using analytical TLC with Merck 60 F-254 silica-gel plates (Merck, Germany), and visualization was done with ultraviolet light.
(§2) Cytotoxicity study was performed at the Regional Centre for Mycology and Biotechnology (RCMB), Al-Azhar University. Mammalian cell lines: human breast cancer cell line (MCF-7 cells), human colon cancer cell line (HCT-116 cells), and human lung cancer cell line (A-549 cells) were obtained from VACSERA Tissue Culture Unit, Cairo, Egypt. The cells were propagated in Dulbecco’s modified Eagle’s medium supplemented with 10% heat-inactivated fetal bovine serum, 1% L-glutamine, HEPES buffer, and 50 μg/mL gentamycin. All cells were maintained at 37 °C in a humidified atmosphere with 5% CO2 and were subcultured two times a week. For the cytotoxicity assay, the cells were seeded in 96-well plate at a cell concentration of 1 × 10^4 cells per well in 100 μL of growth medium. Fresh medium containing different concentrations of the test sample was added after 24 h of seeding. Serial two-fold dilutions of the tested chemical compound were added to confluent cell monolayers dispensed into 96-well, flat-bottomed microtiter plates (Falcon, NJ, USA) using a multichannel pipette. The microtiter plates were incubated at 37 °C in a humidified incubator with 5% CO2 for a period of 48 h. Three wells were used for each concentration of the test sample. Control cells were incubated without test sample and with or without DMSO. The little percentage of DMSO present in the wells (maximal 0.1%) was found not to affect the experiment. After incubation of the cells for at 37 °C, various concentrations of sample were added, and the incubation was continued for 24 h, and viable cells yield was determined by a colorimetric method. In brief, after the end of the incubation period, media were aspirated, and the crystal violet solution (1%) was added to each well for at least 30 min. The stain was removed, and the plates were rinsed using tap water until all excess stain is removed. Glacial acetic acid (30%) was then added to all wells and mixed thoroughly, and then the absorbance of the plates was measured after gently shaken on a microplate reader, using a test wavelength of 490 nm. All results were corrected for background absorbance detected in wells without added stain. Treated samples were compared with the cell control in the absence of the tested compound. All experiments were carried out in triplicate. The cell cytotoxic effect of each tested compound was calculated. The optical density was measured with the microplate reader to determine the number of viable cells, and the percentage of […] was calculated as (1 − (ODt/ODc)) × 100% where ODt is the mean optical density of wells treated with the tested sample and ODc is the mean optical density of untreated cells. The relation between surviving cells and drug concentration is plotted to get the survival curve of each tumor cell line after treatment with the specified compound.

[3] = system: A-549 cells; assay: In vitro cytotoxicity, A-549; assay type: cell-based; conditions: Homo sapiens, A549; A-549 cell line
Text: as §1, §2

[4] = system: MCF-7 cells; assay: In vitro cytotoxicity, MCF-7; assay type: cell-based; conditions: Homo sapiens, MCF7, MCF-7 breast cancer cell line
Text: as §1, §2

[5] = system: CDK4; conditions: cited from earlier work
[6] = biological target: CDK4; conditions: cited from earlier work; remark: listed apart in the source
[7] = biological target: CDK6; conditions: cited from earlier work
[8] = N-aryl aminothiazoles, in vitro

Work on `CC(=NN=C1SCC(=O)N1c1ccccc1)c1cc2cc(Br)ccc2oc1=O` [Compound 3b] yielded an IC50 [1] of 127 nM, an IC50 [2] of 127 nM and an IC50 [3] of 56 nM. It also gave an IC50 [4] of 116 nM.
Work on `CC(=NN=c1scc(-c2ccccc2)n1C)c1cc2cc(Br)ccc2oc1=O` [Compound 4a, 6-Bromo-3-(1-((3-methyl-4-phenylthiazol-2(3H)-ylidene)hydrazono)ethyl)-2H-chromen-2-one] yielded an IC50 [2] of 757 nM, a melting point of 200 °C and an IC50 [3] of 537 nM. The IC50 [4] was 360 nM.
In the case of `CC(=NN=c1scc(-c2ccc(Br)cc2)n1C)c1cc2cc(Br)ccc2oc1=O` [Compound 5a, 6-Bromo-3-(1-((4-(4-bromophenyl)-3-methylthiazol-2(3H)-ylidene)hydrazono)ethyl)-2H-chromen-2-one], the IC50 [1] is reported as 142 nM, the IC50 [2] is reported as 75 nM and the IC50 [3] is reported as 54 nM. For the same molecule, the IC50 [4] was 102 nM.
For `CC(C)(C)c1cnc(CSc2cnc(Nc3ccc(S(=O)(=O)NCCO)cc3)s2)o1` [IX], the IC50 [5, 8] is listed as 233 nM.
For `CNC(=S)NN=C(C)c1cc2cc(Br)ccc2oc1=O` [Compound 2a], the IC50 [2] was 604 nM, the melting point was 220 °C and the IC50 [3] was 451 nM. For the same molecule, the IC50 [4] was 161 nM.
In the case of `CC(=NN=c1scc(-c2ccccc2)n1-c1ccccc1)c1cc2cc(Br)ccc2oc1=O` [Compound 4b, 6-Bromo-3-(1-((3,4-diphenylthiazol-2(3H)-ylidene)hydrazono)ethyl)-2H-chromen-2-one], the IC50 [2] is reported as 968 nM, the melting point is reported as 234 °C and the IC50 [3] is reported as 784 nM. The IC50 [4] was 861 nM.
In the case of `Cc1cc(-c2cnc(Nc3nccc(CN4CCN(C)CC4)n3)s2)nc(OC2CCCCC2)n1` [Vc], the IC50 ([5]; 2-aminothiazoles of Banyu) is listed as 9.2 nM.
In the case of `CSc1nc(C)c(-c2ccnc(Nc3ccc(N4CCN(C)CC4)cn3)n2)s1` [VIIa], the Ki [6] is given as 7 nM and the Ki [7] is given as 42 nM.
Work on `Cc1ccc(C=NNc2nc(-c3cc4cc(Br)ccc4oc3=O)cs2)cc1` [Compound 9b] yielded an IC50 [2] of 522 nM, a melting point of 250 °C and an IC50 [3] of 386 nM. It also gave an IC50 [4] of 295 nM.
Molecule `COc1ccc(C=NNc2nc(-c3cc4cc(Br)ccc4oc3=O)cs2)cc1OC` [Compound 9c] has an IC50 [2] of 649 nM, a melting point of 238 °C and an IC50 [3] of 244 nM. For the same molecule, the IC50 [4] was 479 nM.
In the case of `CC(=NN=C1SC(CC(=O)O)C(=O)N1C)c1cc2cc(Br)ccc2oc1=O` (stereo not drawn) [Compound 6a, 2-(2-((1-(6-Bromo-2-oxo-2H-chromen-3-yl)ethylidene)hydrazono)-3-methyl-4-oxothiazolidin-5-yl)acetic acid], the IC50 [2] is reported as 131 nM, the melting point is reported as 280 °C and the IC50 [3] is reported as 95 nM. It also gave an IC50 [4] of 55 nM.
Work on `CC(=NN=C1SCC(=O)N1C)c1cc2cc(Br)ccc2oc1=O` [Compound 3a] yielded an IC50 [2] of 735 nM, a melting point of 250 to 252 °C and an IC50 [3] of 560 nM. It also gave an IC50 [4] of 138 nM.
`C/C(=N\N=c1/scc(-c2ccc(Br)cc2)n1-c1ccccc1)c1cc2cc(Br)ccc2oc1=O` [Compound 5b, 6-Bromo-3-(1-((4-(4-bromophenyl)-3-phenylthiazol-2(3H)-ylidene)hydrazono)ethyl)-2H-chromen-2-one] gave an IC50 [2] of 414 nM, a melting point of 229 °C and an IC50 [3] of 305 nM. For the same molecule, the IC50 [4] was 305 nM.
In the case of `CSc1nc(C)c(-c2nc(Nc3ccc(N4CCN(C)CC4)cn3)ncc2F)s1` [VIIc], the Ki [6] is listed as 2 nM and the Ki [7] is listed as 55 nM.
In the case of `O=c1oc2ccc(Br)cc2cc1-c1csc(NN=Cc2ccc([N+](=O)[O-])cc2)n1` [Compound 9d], the IC50 [2] is reported as 901 nM, the IC50 [3] is reported as 513 nM and the IC50 [4] is reported as 780 nM.
`O=c1oc2ccc(Br)cc2cc1-c1csc(NN=Cc2ccc(F)cc2)n1` [Compound 9f] showed an IC50 [2] of 495 nM, a melting point of 278 °C and an IC50 [3] of 200 nM. For the same molecule, the IC50 [4] was 276 nM.
Molecule `C/C(=N\NC(=S)Nc1ccccc1)c1cc2cc(Br)ccc2oc1=O` [Compound 2b] has an IC50 [1] of 36 nM, an IC50 [2] of 54 nM and an IC50 [3] of 15 nM.
`O=c1oc2ccc(Br)cc2cc1-c1csc(NN=Cc2ccc([N+](=O)[O-])o2)n1` [Compound 9i] showed an IC50 [1] of 193 nM, an IC50 [2] of 189 nM and an IC50 [3] of 75 nM. It also gave an IC50 [4] of 124 nM.
For `c1cnc(Nc2ncc(-c3ccnc(OC4CCCCC4)n3)s2)nc1` [Va], the IC50 ([5]; 2-aminothiazoles of Banyu) is given as 4.2 nM.
For `CC(C)(CO)CNCc1ccc(Nc2ncc(SCc3ncc(C(C)(C)C)o3)s2)nc1` [VIII], the IC50 [5, 8] is given as 26 nM.
In the case of `CSc1nc(C)c(-c2nc(Nc3ccc(N4CCN(C)CC4)cn3)ncc2C#N)s1` [VIIb], the Ki [6] is listed as 4 nM and the Ki [7] is listed as 30 nM.
`CC(=NN=C1SC(CC(=O)O)C(=O)N1c1ccccc1)c1cc2cc(Br)ccc2oc1=O` (stereo not drawn) [Compound 6b, 2-(2-((1-(6-Bromo-2-oxo-2H-chromen-3-yl)ethylidene)hydrazono)-4-oxo-3-phenylthiazolidin-5-yl)acetic acid] showed an IC50 [2] of 101 nM, a melting point of 251 °C and an IC50 [3] of 77 nM. For the same molecule, the IC50 [4] was 55 nM.
`CN1CC[C@H](c2c(O)cc(O)c3c(=O)cc(-c4ccccc4Cl)oc23)[C@H](O)C1` [Flavopiridol, reference compound] gave an IC50 [2] of 2.41 nM, an IC50 [3] of 1.14 nM and an IC50 [4] of 4.45 nM.
`O=c1oc2ccc(Br)cc2cc1-c1csc(NN=Cc2ccc(Br)cc2)n1` [Compound 9g] showed an IC50 [2] of 744 nM, a melting point of 267 °C and an IC50 [3] of 441 nM. For the same molecule, the IC50 [4] was 488 nM.
For `Cc1cc(-c2cnc(Nc3ncccn3)s2)nc(OC2CCCCC2)n1` [Vb], the IC50 ([5]; 2-aminothiazoles of Banyu) is listed as 34 nM.
`CN(C)c1ccc(C=NNc2nc(-c3cc4cc(Br)ccc4oc3=O)cs2)cc1` [Compound 9e] gave an IC50 [2] of 507 nM, a melting point of 253 °C and an IC50 [3] of 242 nM. For the same molecule, the IC50 [4] was 432 nM.
`O=c1oc2ccc(Br)cc2cc1-c1csc(N/N=C/c2ccccc2)n1` [Compound 9a] gave an IC50 [1] of 131 nM, an IC50 [2] of 91 nM and an IC50 [3] of 34 nM. For the same molecule, the IC50 [4] was 60 nM.
`Cc1ccc(C=NNc2nc(-c3cc4cc(Br)ccc4oc3=O)cs2)o1` [Compound 9h] gave an IC50 [2] of 574 nM, an IC50 [3] of 340 nM and an IC50 [4] of 534 nM.
